Literature values, collected in US20220409829A1, “ANTIVIRAL THAT DESTROYS DNA AND/OR RNA OF VIRUSES AND VIROIDS” (priority 2021, published 2022).

Key:
[1] = FIG. 5
[2] = FIG. 5; remark: listed apart in the source
[3] = within 10 minutes; inhalation; FIG. 4

**Q.** With `[N-]=[N+]=O` [nitrous oxide] as the compound, how does the agranulocytosis (bone marrow; after 4 days of exposure) read?
**A.** apparent

**Q.** And the “Megaloblastic changes in bone marrow” value (bone marrow; exposure to anesthetic concentrations for 24 hours)?
**A.** observed

**Q.** And the minimum alveolar concentration [1]?
**A.** 105%

**Q.** And the blood/gas partition coefficient [2]?
**A.** 0.46

**Q.** And the “equilibration (Fa/Fi)” value [3]?
**A.** approximately 90%
